Assay results from US11098044B2, “Imidazopyridinyl compounds and use thereof for treatment of neurodegenerative disorders” (1ST Biotherapeutics, Inc., priority 2019, dated 2021).

Assays:
Format in all cases: biochemical
[1] = biological target: c-Abl (His-tagged recombinant human ABL1) (Homo sapiens (Human), UniProt P00519); experiment: c-abl Kinase Assay (ADP-Glo); conditions: ATP (25 μM), Abltide substrate
Experimental: ADP-Glo assay kit was purchased from Promega. Magnesium chloride (MgCl2), bovine serum albumin (BSA), ethylene glycol-bis(p-aminoethyl ether)-N,N,N′,N′-tetraacetic acid (EGTA), triton X-100, 1,4-dithiothreitol (DTT) and dimethyl sulfoxide (DMSO) were purchased from Sigma-Aldrich. HEPES buffer was purchased from Gibco. ABL1 kinase and Abltide were purchased from Signalchem.
c-Abl kinase activity was measured by Promega's ADP-Glo™ Assay. In this assay, His-tagged recombinant human ABL1 (0.25 ng/μl) is incubated with 5 μL of compounds (0.5% DMSO), 5 μL of Abltide (0.01 μg/μl) and 5 μL of ATP (25 μM) in buffer (50 mM HEPES, 7.5; 10 mM MgCl2; 1 mM EGTA; 0.05% BSA; 0.01% Triton X-100; 2 mM DTT). The assay was started by incubating the reaction mixture in a 96-well plate at 30° C. for 30-min. After the incubation, 25 μL ADP-Glo reagent was added and the reaction was incubated at room temperature for 40-min to stop the reaction and degrade residual ATP. The ADP product was then converted to ATP by adding 50 μL per well of detection reagent. Luminescence was detected after 30-min room temperature incubation with the Molecular device I3X plate reader. The IC50 values were calculated from a series of percent inhibition values determined at a range of inhibitor concentration using software routines as implemented in the GraphPad Prism 7 software and Sigma Plot 13.0.

LRRK2 (WT) = LRRK2 (WT) (Homo sapiens (Human), UniProt Q5S007); experiment: LRRK2 Kinase Assay (Adapta); conditions: 70 μM ATP, LRRKtide substrate
LRRK2 (WT), sequence (Q5S007 whole entry): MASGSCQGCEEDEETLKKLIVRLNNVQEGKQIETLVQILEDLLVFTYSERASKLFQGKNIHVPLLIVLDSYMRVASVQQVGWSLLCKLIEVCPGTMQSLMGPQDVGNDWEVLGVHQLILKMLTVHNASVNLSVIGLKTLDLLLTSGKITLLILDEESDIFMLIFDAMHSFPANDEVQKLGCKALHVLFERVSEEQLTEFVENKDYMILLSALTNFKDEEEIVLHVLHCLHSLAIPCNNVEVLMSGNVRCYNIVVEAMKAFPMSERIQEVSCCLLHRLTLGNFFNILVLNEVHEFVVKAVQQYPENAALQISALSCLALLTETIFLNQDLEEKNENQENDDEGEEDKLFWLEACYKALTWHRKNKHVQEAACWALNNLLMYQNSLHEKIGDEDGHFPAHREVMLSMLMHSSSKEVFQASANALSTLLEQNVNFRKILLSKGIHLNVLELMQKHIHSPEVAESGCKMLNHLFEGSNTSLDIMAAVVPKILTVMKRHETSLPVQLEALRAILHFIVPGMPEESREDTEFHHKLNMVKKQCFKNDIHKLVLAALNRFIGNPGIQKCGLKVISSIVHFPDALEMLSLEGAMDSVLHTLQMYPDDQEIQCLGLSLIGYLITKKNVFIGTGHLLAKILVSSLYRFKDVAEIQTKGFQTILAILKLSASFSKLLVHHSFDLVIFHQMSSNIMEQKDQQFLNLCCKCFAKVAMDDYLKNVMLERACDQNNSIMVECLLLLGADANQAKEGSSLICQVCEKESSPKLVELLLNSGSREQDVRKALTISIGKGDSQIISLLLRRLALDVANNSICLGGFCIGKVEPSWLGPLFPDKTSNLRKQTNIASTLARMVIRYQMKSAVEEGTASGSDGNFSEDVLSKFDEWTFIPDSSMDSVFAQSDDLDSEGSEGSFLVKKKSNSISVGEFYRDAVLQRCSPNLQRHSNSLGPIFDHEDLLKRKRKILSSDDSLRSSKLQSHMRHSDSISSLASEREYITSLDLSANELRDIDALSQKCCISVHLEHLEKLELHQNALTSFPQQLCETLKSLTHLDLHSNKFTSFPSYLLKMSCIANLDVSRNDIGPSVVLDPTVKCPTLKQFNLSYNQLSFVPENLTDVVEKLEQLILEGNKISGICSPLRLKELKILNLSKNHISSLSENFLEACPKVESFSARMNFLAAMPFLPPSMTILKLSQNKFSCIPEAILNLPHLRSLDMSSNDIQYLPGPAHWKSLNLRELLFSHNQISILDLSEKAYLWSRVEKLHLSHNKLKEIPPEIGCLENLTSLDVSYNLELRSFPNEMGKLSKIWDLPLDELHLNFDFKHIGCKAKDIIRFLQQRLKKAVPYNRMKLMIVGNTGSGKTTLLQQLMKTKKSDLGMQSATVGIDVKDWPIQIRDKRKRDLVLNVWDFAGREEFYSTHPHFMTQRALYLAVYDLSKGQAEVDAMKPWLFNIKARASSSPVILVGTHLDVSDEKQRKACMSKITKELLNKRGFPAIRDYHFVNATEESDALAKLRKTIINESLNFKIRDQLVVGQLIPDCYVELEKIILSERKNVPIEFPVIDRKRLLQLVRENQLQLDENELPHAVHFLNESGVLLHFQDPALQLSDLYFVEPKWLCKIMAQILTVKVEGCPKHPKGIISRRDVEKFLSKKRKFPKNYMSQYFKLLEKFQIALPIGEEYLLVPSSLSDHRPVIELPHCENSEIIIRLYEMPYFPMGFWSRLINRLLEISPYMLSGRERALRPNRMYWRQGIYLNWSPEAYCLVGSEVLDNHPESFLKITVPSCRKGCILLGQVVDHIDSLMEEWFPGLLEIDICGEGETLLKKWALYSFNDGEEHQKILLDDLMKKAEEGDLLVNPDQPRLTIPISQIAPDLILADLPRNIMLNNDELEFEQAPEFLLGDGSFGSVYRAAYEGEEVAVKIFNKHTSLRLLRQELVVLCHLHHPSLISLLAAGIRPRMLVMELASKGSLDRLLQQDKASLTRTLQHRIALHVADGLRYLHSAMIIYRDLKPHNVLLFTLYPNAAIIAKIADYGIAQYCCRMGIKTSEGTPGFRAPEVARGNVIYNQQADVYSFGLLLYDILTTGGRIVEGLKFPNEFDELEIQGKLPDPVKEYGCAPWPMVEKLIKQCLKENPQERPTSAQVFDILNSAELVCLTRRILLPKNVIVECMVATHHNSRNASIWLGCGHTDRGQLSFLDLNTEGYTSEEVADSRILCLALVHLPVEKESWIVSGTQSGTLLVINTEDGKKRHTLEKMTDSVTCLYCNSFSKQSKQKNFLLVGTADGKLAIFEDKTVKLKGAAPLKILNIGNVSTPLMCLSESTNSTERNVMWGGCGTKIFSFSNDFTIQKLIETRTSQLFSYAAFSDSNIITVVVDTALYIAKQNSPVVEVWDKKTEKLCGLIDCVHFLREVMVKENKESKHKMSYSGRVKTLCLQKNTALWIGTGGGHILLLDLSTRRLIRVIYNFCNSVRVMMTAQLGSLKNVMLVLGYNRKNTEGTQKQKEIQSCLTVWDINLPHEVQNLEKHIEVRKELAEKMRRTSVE
Experimental: (§1) The LRRK2 and LRRK2 G2019S kinase assays were performed using the Adapta™ technology in ThermoFisher Scientific. This experiment was carried out according to the supplier's protocol. Briefly, assay conditions were as follows. The mixture of substrate (LRRKtide) and each kinase was prepared in 50 mM Tris pH 8.5, 0.01% BRIJ-35, 10 mM MgCl2, 1 mM EGTA, 0.02% NaN3. Assays were performed in the presence of 70 μM ATP and 100 μM ATP (KmATP) in LRRK2 and LRRK2 G2019S, respectively. The reaction was progressed at room temperature for 1 hour. Upon completion of kinase reaction, 5 μL of Detection Mix was added and after 60 min incubation time, the emission ratio of 665/615 nm was calculated.

LRRK2 G2019S = LRRK2 G2019S (Homo sapiens (Human), UniProt Q5S007, G2019S); experiment: LRRK2 G2019S Kinase Assay (Adapta); conditions: 100 μM ATP, LRRKtide substrate; read-out: LRRK2_G2019S IC50
LRRK2 G2019S, sequence (Q5S007 whole entry G2019S): as the sequence (Q5S007 whole entry) above, with G2019S counted along it
Experimental: as §1

c-Abl (His-tagged recombinant human ABL1), sequence (P00519 whole entry): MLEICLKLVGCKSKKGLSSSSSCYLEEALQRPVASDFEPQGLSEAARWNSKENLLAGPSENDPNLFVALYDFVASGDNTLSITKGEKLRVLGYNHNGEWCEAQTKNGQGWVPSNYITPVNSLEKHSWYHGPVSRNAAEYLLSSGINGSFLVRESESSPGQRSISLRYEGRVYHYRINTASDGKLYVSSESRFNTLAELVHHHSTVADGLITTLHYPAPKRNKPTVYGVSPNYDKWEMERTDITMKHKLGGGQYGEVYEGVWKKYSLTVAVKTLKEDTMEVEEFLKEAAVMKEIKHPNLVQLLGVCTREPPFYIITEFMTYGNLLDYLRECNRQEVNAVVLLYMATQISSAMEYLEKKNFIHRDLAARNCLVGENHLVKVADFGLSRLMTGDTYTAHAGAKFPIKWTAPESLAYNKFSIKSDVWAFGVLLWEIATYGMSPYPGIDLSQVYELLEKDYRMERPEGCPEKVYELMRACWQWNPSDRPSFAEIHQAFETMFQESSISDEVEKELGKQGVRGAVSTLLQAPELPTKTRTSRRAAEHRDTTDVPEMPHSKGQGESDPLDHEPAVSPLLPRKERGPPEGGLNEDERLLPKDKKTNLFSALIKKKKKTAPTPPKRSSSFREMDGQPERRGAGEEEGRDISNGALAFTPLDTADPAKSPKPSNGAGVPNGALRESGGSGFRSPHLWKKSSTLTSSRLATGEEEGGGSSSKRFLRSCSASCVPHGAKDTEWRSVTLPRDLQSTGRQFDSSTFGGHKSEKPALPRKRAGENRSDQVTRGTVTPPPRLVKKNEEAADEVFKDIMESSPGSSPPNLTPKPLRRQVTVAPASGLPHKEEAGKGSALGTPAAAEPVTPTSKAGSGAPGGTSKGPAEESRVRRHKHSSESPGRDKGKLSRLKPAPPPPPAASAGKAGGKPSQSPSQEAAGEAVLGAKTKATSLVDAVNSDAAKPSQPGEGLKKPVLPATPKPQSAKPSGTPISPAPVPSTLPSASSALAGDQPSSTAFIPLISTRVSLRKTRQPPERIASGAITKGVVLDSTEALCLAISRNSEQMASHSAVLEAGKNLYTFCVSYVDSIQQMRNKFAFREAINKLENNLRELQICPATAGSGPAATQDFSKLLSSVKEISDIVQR

| Compound | IC50 [1] [nM] | IC50 (LRRK2 (WT)) [nM] | IC50 (LRRK2 G2019S) [nM] |
| --- | --- | --- | --- |
| CC(=O)Nc1ccc(C)c(-c2ccc3nc(NC(=O)[C@@H]4C[C@@H]4F)cn3c2)c1 [Example 25, (1S,2S)—N-(6-(5-acetamido-2-methylphenyl)imidazo[1,2-a]pyridin-2-yl)-2-fluorocyclopropane-1-carboxamide] | 10 to 100 | > 1000 | 101 to 1000 |
| Cc1ccncc1-c1ccc2nc(NC(=O)[C@@H]3C[C@@H]3F)c(C)n2c1 [Example 5, (1S,2S)-2-fluoro-N-(3-methyl-6-(4-methylpyridin-3-yl)imidazo[1,2-a]pyridin-2-yl)cyclopropane-1-carboxamide] | 101 to 1000 | > 1000 | > 1000 |
| Cc1c(F)cccc1-c1ccc2nc(NC(=O)[C@@H]3C[C@@H]3F)c(Cl)n2c1 [Example 3, (1S,2S)—N-(3-chloro-6-(3-fluoro-2-methylphenyl)imidazo[1,2-a]pyridin-2-yl)-2-fluorocyclopropane-1-carboxamide] | 10 to 100 | 101 to 1000 | 101 to 1000 |
| COC(=O)c1ccc(C)c(-c2ccc3nc(NC(=O)[C@@H]4C[C@@H]4F)cn3c2)c1 [Example 13, methyl 3-(2-((1S,2S)-2-fluorocyclopropane-1-carboxamido)imidazo[1,2-a]pyridin-6-yl)-4-methylbenzoate] | < 10 | > 1000 | > 1000 |
| O=C(Nc1cn2cc(-c3cnc4[nH]ccc4c3Cl)ccc2n1)[C@@H]1C[C@@H]1F [Example 87, (1S,2S)—N-(6-(4-chloro-1H-pyrrolo[2,3-b]pyridin-5-yl)imidazo[1,2-a]pyridin-2-yl)-2-fluorocyclopropanecarboxamide] | < 10 | – | – |
| Cc1c(F)cccc1-c1ccc2nc(NC(=O)C3CC3(F)F)cn2c1 (centres unmarked) [Example 77, 2,2-difluoro-N-(6-(3-fluoro-2-methylphenyl)imidazo[1,2-a]pyridin-2-yl)cyclopropanecarboxamide] | – | 101 to 1000 | 10 to 100 |
| Cc1c(-c2ccc3nc(NC(=O)[C@@H]4C[C@@H]4F)cn3c2)ccc2ncsc12 [Example 104, (1S,2S)-2-fluoro-N-(6-(7-methylbenzo[d]thiazol-6-yl)imidazo[1,2-a]pyridin-2-yl)cyclopropanecarboxamide] | < 10 | – | – |
| CNc1c(F)cccc1-c1ccc2nc(NC(=O)[C@@H]3C[C@@H]3F)cn2c1 [Example 98, (1S,2S)-2-fluoro-N-(6-(3-fluoro-2-(methylamino)phenyl)imidazo[1,2-a]pyridin-2-yl)cyclopropanecarboxamide] | < 10 | – | – |
| Cc1ccc2[nH]cnc2c1-c1ccc2nc(NC(=O)[C@@H]3C[C@@H]3F)cn2c1 [Example 100, (1S,2S)-2-fluoro-N-(6-(5-methyl-1H-benzo[d]imidazol-4-yl)imidazo[1,2-a]pyridin-2-yl)cyclopropane-1-carboxamide] | 10 to 100 | – | – |
| O=C(Nc1cn2cc(-c3ccccc3C(F)(F)F)ccc2n1)[C@@H]1C[C@@H]1F [Example 96] | 10 to 100 | – | – |
| Cc1c(F)cccc1-c1ccc2nc(NC(=O)[C@@H]3C[C@@H]3F)c(Br)n2c1 [Example 58, (1S,2S)—N-(3-bromo-6-(3-fluoro-2-methylphenyl)imidazo[1,2-a]pyridin-2-yl)-2-fluorocyclopropane-1-carboxamide] | 10 to 100 | – | – |
| COc1ccncc1-c1ccc2nc(NC(=O)[C@@H]3C[C@@H]3F)cn2c1 [Example 48, (1S,2S)-2-fluoro-N-(6-(4-methoxypyridin-3-yl)imidazo[1,2-a]pyridin-2-yl)cyclopropane-1-carboxamide] | – | 10 to 100 | 10 to 100 |
| O=C(Nc1cn2cc(-c3cccc(F)c3C3CC3)ccc2n1)[C@@H]1C[C@@H]1F [Example 97, (1S,2S)—N-(6-(2-cyclopropyl-3-fluorophenyl)imidazo[1,2-a]pyridin-2-yl)-2-fluorocyclopropanecarboxamide] | < 10 | – | – |
| CN(C)c1c(F)cccc1-c1ccc2nc(NC(=O)[C@@H]3C[C@@H]3F)cn2c1 [Example 93, (1S,2S)—N-(6-(2-(dimethylamino)-3-fluorophenyl)imidazo[1,2-a]pyridin-2-yl)-2-fluorocyclopropanecarboxamide] | 10 to 100 | – | – |
| CC(C)c1c(F)cccc1-c1ccc2nc(NC(=O)[C@@H]3C[C@@H]3F)cn2c1 [Example 105, (1S,2S)-2-fluoro-N-(6-(3-fluoro-2-isopropylphenyl)imidazo[1,2-a]pyridin-2-yl)cyclopropanecarboxamide] | 101 to 1000 | – | – |
| Cc1ccc2ocnc2c1-c1ccc2nc(NC(=O)[C@@H]3C[C@@H]3F)cn2c1 [Example 102, (1S,2S)-2-fluoro-N-(6-(5-methylbenzo[d]oxazol-4-yl)imidazo[1,2-a]pyridin-2-yl)cyclopropanecarboxamide] | < 10 | – | – |
| Cc1cccc(C)c1-c1ccc2nc(NC(=O)[C@@H]3C[C@@H]3F)cn2c1 [Example 42, (1S,2S)—N-(6-(2,6-dimethylphenyl)imidazo[1,2-a]pyridin-2-yl)-2-fluorocyclopropane-1-carboxamide] | – | 101 to 1000 | 101 to 1000 |

The next lines start with the values.

| IC50 [1] [nM] | IC50 (LRRK2 (WT)) [nM] | IC50 (LRRK2 G2019S) [nM] | Compound |
| --- | --- | --- | --- |
| 10 to 100 | 10 to 100 | 10 to 100 | Cc1cc(F)ncc1-c1ccc2nc(NC(=O)[C@@H]3C[C@@H]3F)cn2c1 [Example 67, (1S,2S)-2-fluoro-N-(6-(6-fluoro-4-methylpyridin-3-yl)imidazo[1,2-a]pyridin-2-yl)cyclopropanecarboxamide] |
| < 10 | 101 to 1000 | 10 to 100 | Cc1ccc(N)cc1-c1ccc2nc(NC(=O)[C@@H]3C[C@@H]3F)cn2c1 [Example 23, (1S,2S)—N-(6-(5-amino-2-methylphenyl)imidazo[1,2-a]pyridin-2-yl)-2-fluorocyclopropane-1-carboxamide] |
| < 10 | – | – | Cc1cc2nc[nH]c2cc1-c1ccc2nc(NC(=O)[C@@H]3C[C@@H]3F)cn2c1 [Example 94, (1S,2S)-2-fluoro-N-(6-(5-methyl-1H-benzo[d]imidazol-6-yl)imidazo[1,2-a]pyridin-2-yl)cyclopropanecarboxamide] |
| < 10 | – | – | Cc1cc2[nH]ccc2cc1-c1ccc2nc(NC(=O)[C@@H]3C[C@@H]3F)cn2c1 [Example 92, (1S,2S)-2-fluoro-N-(6-(6-methyl-1H-indol-5-yl)imidazo[1,2-a]pyridin-2-yl)cyclopropanecarboxamide] |
| < 10 | – | – | O=C(Nc1cn2cc(-c3cccc(F)c3O)ccc2n1)[C@@H]1C[C@@H]1F [Example 89, (1S,2S)-2-fluoro-N-(6-(3-fluoro-2-hydroxyphenyl)imidazo[1,2-a]pyridin-2-yl)cyclopropanecarboxamide] |
| < 10 | – | – | Cc1cc2ncsc2cc1-c1ccc2nc(NC(=O)[C@@H]3C[C@@H]3F)cn2c1 [Example 103, (1S,2S)-2-fluoro-N-(6-(5-methylbenzo[d]thiazol-6-yl)imidazo[1,2-a]pyridin-2-yl)cyclopropanecarboxamide] |
| < 10 | – | – | Cc1ccccc1-c1ccc2nc(NC(=O)[C@@H]3C[C@@H]3F)cn2c1 [Example 88, (1S,2S)-2-fluoro-N-(6-(o-tolyl)imidazo[1,2-a]pyridin-2-yl)cyclopropanecarboxamide] |
| < 10 | – | – | Cc1cc2ncoc2cc1-c1ccc2nc(NC(=O)[C@@H]3C[C@@H]3F)cn2c1 [Example 99, (1S,2S)-2-fluoro-N-(6-(5-methylbenzo[d]oxazol-6-yl)imidazo[1,2-a]pyridin-2-yl)cyclopropanecarboxamide] |
| < 10 | – | – | CCc1c(F)cccc1-c1ccc2nc(NC(=O)[C@@H]3C[C@@H]3F)cn2c1 [Example 95, (1S,2S)—N-(6-(2-ethyl-3-fluorophenyl)imidazo[1,2-a]pyridin-2-yl)-2-fluorocyclopropanecarboxamide] |
| < 10 | – | – | Nc1c(F)cccc1-c1ccc2nc(NC(=O)[C@@H]3C[C@@H]3F)cn2c1 [Example 90, (1S,2S)—N-(6-(2-amino-3-fluorophenyl)imidazo[1,2-a]pyridin-2-yl)-2-fluorocyclopropanecarboxamide] |
| < 10 | – | – | Cc1cc2cc[nH]c2cc1-c1ccc2nc(NC(=O)[C@@H]3C[C@@H]3F)cn2c1 [Example 91, (1S,2S)-2-fluoro-N-(6-(5-methyl-1H-indol-6-yl)imidazo[1,2-a]pyridin-2-yl)cyclopropanecarboxamide] |
| < 10 | – | – | Cc1c(-c2ccc3nc(NC(=O)[C@@H]4C[C@@H]4F)cn3c2)cnc2[nH]ccc12 [Example 86, (1S,2S)-2-fluoro-N-(6-(4-methyl-1H-pyrrolo[2,3-b]pyridin-5-yl)imidazo[1,2-a]pyridin-2-yl)cyclopropanecarboxamide] |
